Patent US4199598A, “Method of treating noradrenaline dysfunction or for dopamine-β-hydroxylase inhibition” (Richter Gedeon Vegyeszeti Gyar Rt., priority 1976, dated 1980)

Legend:
dopamine-β-hydroxylase [1] = settings: in vitro, in words, prior art; cited from earlier work
dopamine-β-hydroxylase [2] = assay: Noradrenaline, dopamine, serotonine and 5-hydroxy-indolylacetic acid contents of cerebrum (dopamine-β-hydroxylase inhibiting effect); assay type: in vivo, male Wister rats; settings: rats, i.p., 4 hours
Procedure: (§1) The dopamine-β-hydroxylase inhibiting effects of the compounds according to the invention were examined by the following tests:
(§2) The tests were performed on male Wister rats weighing 150 to 200 g. The dopamine-β-hydroxylase inhibiting effects of the compounds were evaluated by determining the change of noradrenaline, dopamine and adrenaline levels of the cerebrum, heart, spleen and adrenal gland. The serotonine and 5-hydroxy-indolyl-acetic acid levels of the cerebrum were also determined. The measurements were performed as follows:
(§3) The animals were decapitated, the cerebrum, heart, spleen and adrenal gland were removed quickly, and the organs were frozen by placing them onto a metal sheet cooled with dry ice. The frozen organs were stored for a maximum of one night at -20° C.
(§4) Noradrenaline was determined according to the method of Shellenberger et al (Anal. Biochem., Vol. 39, p. 356, 1971), with the following modifications of the basic procedure: 0.5 ml of 0.1 molar Na-K-phosphate buffer, containing 9 g/l of EDTA-Na2, were added to 0.5 ml of the eluate, and the catecholamines (noradrenaline in the examination of heart and spleen and noradrenaline and dopamine in the examination of the cerebrum) were oxidized with 0.1 ml of a 0.1 N iodine solution in 5% potassium iodide. […] Thereafter the samples were placed for 5 minutes in a drying oven heated to 100° C., and then the samples were cooled with ice water. The fluorescence of noradrenaline was measured with an OPTON spectrophotometer at wavelengths of 390 nm (excitation) and 490 nm (emission).
Determination of the noradrenaline, dopamine, serotonine and 5-hydroxy-indolylacetic acid contents of cerebrum
The brains were homogenized in 10 parts by volume of 0.4 N perchloric acid. The homogenized mixture was stored at -20° C. overnight; thereafter it was thawed and centrifuged as described above. A sample of homogenized mixture corresponding to 0.5 g of brain was removed, the pH of the sample was adjusted to 8.0±0.1 with 0.1 molar tris-buffer of the above composition, and the sample was processed as described above for the determination of the noradrenaline content of heart and spleen, with the difference that 1.5 ml of 0.05 N perchloric acid were applied as eluting agent. 0.5 ml of the eluate were applied to determine the noradrenaline and dopamine content. The measurement was performed as described above, with the difference that samples of 0.5 ml were applied for the recording of the fluorescence of noradrenaline. The residue was placed for 50 minutes into a drying oven heated to 100° C.; thereafter the sample was cooled with ice water, and the fluorescence of dopamine was recorded at wavelengths of 325 nm (excitation) and 380 nm (emission).
In a further test series the serotonine and 5-hydroxy-indolylacetic acid contents were also determined, in addition to the determination of the noradrenaline and dopamine contents, from the same sample. In this instance the brains were homogenized in 10 ml of 75% ethanol, 0.2 ml of EDTA-Na2 and 5% of ascorbic acid were added to the homogenized mixtures, and the homogenized mixtures were maintained at -20° C. overnight. The mixtures were then centrifuged as described above, and 5.0 ml samples of the supernatant were removed. The samples were diluted with equal volumes of distilled water, and poured onto ion-exchange columns of 0.5×1.5 cm dimensions, filled with buffered Amberlite CG-30 (200 to 400 mesh). The columns were washed with 5 ml of distilled water followed with 1.0 ml of 0.2 N hydrochloric acid, and the first effluent and the aqueous wash were collected for the determination of 5-hydroxy-indolylacetic acid. Elution was continued with further 1.2 ml of 0.2 N hydrochloric acid in order to remove noradrenaline, dopamine and serotonine. Samples of 0.3 ml were used for the determinations. […]

dopamine-β-hydroxylase [3] = assay: Adrenaline content of adrenal gland (dopamine-β-hydroxylase inhibiting effect); assay type: in vivo, male Wister rats; settings: rats, i.p., 4 hours
Procedure: as §1, §2, §3
Determination of the adrenaline content of adrenal gland
The adrenal glands were freed from fat and homogenized in 3.0 ml of ice-cold 0.4 N perchloric acid. The homogenized mixtures were centrifuged for 10 minutes at 0° C. with a speed of 3200 r.p.m. on a Janetzky K-70 type centrifuge. 0.05 ml samples were taken from the supernatant, and the adrenaline level was determined directly by the method of Laverty et al (Anal. Biochem., Vol. 22, p. 269, 1968).
(§5) In the tests disulfiram, 2,2-dipyridyl, bis(1-methyl-4-homopiperazinyl-thiocarbonyl)-disulfide, sodium diethyldithiocarbamate and N-phenyl-N'-(2-thiazolyl)-thiourea were used as reference substances. The values indicated in Table 1 are percentages in relation to the amine levels of the controls measured in the same tests (± Standard Error). The statistical calculations were performed on a TPA/i type computer, using Student's test.

dopamine-β-hydroxylase [4] = assay: Noradrenaline content of heart (dopamine-β-hydroxylase inhibiting effect); assay type: in vivo, male Wister rats; settings: rats, i.p., 4 hours
Procedure: as §1, §2, §3
(§6) Determination of the noradrenaline content of heart and spleen
(§7) The organs were weighed in frozen state and then homogenized in 5.0 ml of 0.4 N perchloric acid containing 0.05% of EDTA-Na2 and 0.1% of Na2 S2 O5. The homogenized mixtures were centrifuged as described above for the treatment of adrenal gland, the supernatants were decanted, and the pH was adjusted to 8.0±0.1 with a 0.1 molar tris buffer containing 20 g/l of NaOH and 25 g/l of EDTA-Na2. 100 mg of prepared Al2 O3 (Anton et al: J. Pharm. Ther., Vol. 138, p. 360, 1962) were added to the samples, and the mixtures were shaken mechanically for 20 minutes. Thereafter the Al2 O3 were washed with 2.10 ml of distilled water, and the noradrenaline was eluted with 1.0 ml of 0.05 N perchloric acid. 0.5 ml samples of the eluate were applied for the determination of noradrenaline.
as §4, §5

Toxicity (LD50), rats = settings: rat, in vivo, ip
dopamine-β-hydroxylase [5] = assay: Noradrenaline content of spleen (dopamine-β-hydroxylase inhibiting effect); assay type: in vivo, male Wister rats; settings: rats, i.p., 37.5 mg/kg, 4 hours
Procedure: as §1, §2, §3, §6, §7, §4, §5

In the case of `c1ccc(-c2ccccn2)nc1` [2,2-D, 2,2-dipyridyl, reference compound], the “dopamine-β-hydroxylase inhibition in vitro” value (dopamine-β-hydroxylase [1]) is given as “effective under in vitro conditions”, the “Amine level, cerebrum DA (dopamine)” value (dopamine-β-hydroxylase [2]; 37.5 mg/kg) is given as 116 percentages in relation to the controls and the “Amine level, cerebrum NA (noradrenaline)” value (dopamine-β-hydroxylase [2]; 37.5 mg/kg) is given as 79.5 percentages in relation to the controls. The “Amine level, cerebrum DA (dopamine)” value (dopamine-β-hydroxylase [2]; 75 mg/kg) was 95 percentages in relation to the controls, the “Amine level, cerebrum NA (noradrenaline)” value (dopamine-β-hydroxylase [2]; 75 mg/kg) was 41.2 percentages in relation to the controls and the “Amine level, cerebrum SE (serotonine)” value (dopamine-β-hydroxylase [2]; 75 mg/kg) was 100 percentages in relation to the controls. For the same compound, the “Amine level, adrenal gland AD (adrenaline)” value (dopamine-β-hydroxylase [3]; 37.5 mg/kg) was 80 percentages in relation to the controls, the “Amine level, adrenal gland AD (adrenaline)” value (dopamine-β-hydroxylase [3]; 75 mg/kg) was 63 percentages in relation to the controls and the “Amine level, heart NA (noradrenaline)” value (dopamine-β-hydroxylase [4]; 37.5 mg/kg) was 104 percentages in relation to the controls. The “Amine level, heart NA (noradrenaline)” value (dopamine-β-hydroxylase [4]; 75 mg/kg) was 58 percentages in relation to the controls, the LD50 (Toxicity (LD50), rats) was 150 mg/kg and the “Amine level, spleen NA (noradrenaline)” value (dopamine-β-hydroxylase [5]) was 100 percentages in relation to the controls.
